# Counter-ions that a name gives are not always drawn.
# Legend:
# bed bugs [1] = assay: Bed bug luring assay (baited cup, overnight); assay type: in vivo; conditions: for Attractant Category: category from attractant activity value; for Att Act (attractant activity value): percentage of 10 bed bugs in baited cup, cottonball with 100 microliters compound or combination solution, overnight, dark
# Procedure: Assays were conducted to measure the ability of compounds and compound combinations to attract bed bugs. A testing arena habitat comprising a small plastic container was placed inside of a larger, secondary container. The top half inch was removed from two bathroom sized plastic cups and each cup was placed on opposite sides of the testing arena habitat, one inch away from the wall. Each outer part of the cup was textured using sandpaper, as bed bugs cannot climb smooth surfaces. A paper towel was used to line the floor of the testing arena habitat. The top, removed portion of one of the cups was placed mouth side down in the center of the arena. In one of the cups, a cottonball was placed and treated with 100 microliters of compound or compound combination solution [comprising a total of […] of compound(s).] Ten bed bugs were placed within the center cut off cup top and the testing arena habitat was covered and placed within a dark, climate controlled room overnight.
# The next day, the number of bed bugs that crawled into the baited cup were recorded and the attractant activity value was calculated. As used herein, the attractant activity value represents the percentage of bugs that crawled into the baited cup as compared to the total number of bed bugs. In the Table, “Att Act” refers to attract activity value.
# [2] = tested on: bed bug (Cimex lectularius); assay: Bed bug threshold assay (mouse bait, treated filter paper on acrylic rod bridges); assay type: in vivo; conditions: 90 μl isopropyl alcohol + 10 μl testing compound on filter paper; bed bugs crossing treated vs control; mouse as bait; 10 minutes
# Procedure: Compounds and blends of the present invention were assayed for their ability to modify bed bug (Cimex lectularius) behavior using a bed bug threshold assay. Three interceptors were laid side by side and acrylic rods were stuck on to the sides with putty so that they went from interceptor to interceptor forming bridges. Paper towels sections of 6 inches by 2 inches were placed so that they hung off of the ends of the acrylic rods to form harborage for bed bugs. Next, 125 mm pieces of Whatman Filter paper treated either with the compound of interest (90 μl isopropyl alcohol+10 μl testing compound) or with control solution of 100 μl isopropyl alcohol were stuck to the top of the acrylic rods with the compound impregnated filter on one rod and control impregnated filter on the other. In the middle interceptor a mouse was placed as bait for the bed bugs. In either outside interceptors 10 bed bugs each were placed in holding dishes, allowed to equilibrate for 10 minutes then released on the harborage. Video footage at 1 second time intervals was obtained for 10 minutes then analyzed for bed bug movements. Repellency of any given compound or blend was calculated by counting how many bed bugs traversed the acrylic rods across either the treated or the control Whatman filter paper. Percent repellency was determined by comparing the number of bed bugs which crossed the treated Whatman filter paper to the number of bed bugs which crossed the control Whatman filter paper.
# [3] = tested on: bed bug (Cimex lectularius); assay: Bed bug repellency assay (filter paper harborage, petri dish); assay type: in vivo; conditions: for % Repellency / Repellency Category: individual compounds; for % Repellency: 10 microliters compound + 90 microliters isopropyl alcohol on filter paper tent, 10 bed bugs, 5 minutes, vs control; for Repellency Category: category from % repellency; for Ind % Rep (percent repellency of the individual compound): values obtained in Example 1 for the individual compound of a blend
# Procedure: Compounds and blends of the present invention were assayed for their ability to modify bed bug (Cimex lectularius) behavior using a bed bug repellency assay. This assay takes advantage of the bed bug's natural instinct to seek harborage. Two petri dishes were obtained and the inner areas of each were sanded down (leaving the perimeter smooth.) Talc was applied on the perimeter and on the inside walls of the petri dishes with a small paint brush to prevent bed bugs from escaping. A cut off top portion of a plastic cup was placed upside down in the center of one petri dish to create a holding arena for the bed bugs. A large plastic secondary container was gathered and a paper towel was laid down inside the bottom. The petri dish was then placed inside and ten bed bugs were placed inside the cut off portion of the cup.
# Next, two pieces of filter paper were cut down the middle to yield 4 equally sized halves. Three pieces were placed inside a glass dish […] and the remaining piece was placed in a separate dish. All four pieces were folded down the middle to create a “tent” or “harborage” when laid such that the folded crease faced up. 100 microliters of isopropyl alcohol was pipetted into three pieces of filter paper (all housed in the first glass dish.) In a separate 4 ml vial, 90 microliters of isopropyl alcohol was combined and vortexed with 10 microliters of the compound or compound combination being tested. 100 microliters of this solution [comprising a total of […] of compound(s)] was pipetted onto the filter paper in the separate dish. All filter papers were then allowed to dry. Once dry, experiments were conducted first with two filter paper halves comprising only the isopropyl alcohol (control experiment) and then with the remaining filter paper halves [one with only isopropyl alcohol and one comprising the test compound(s).] Filter paper halves were placed on opposing sides of experimental petri dishes and bed bugs were allowed to move freely within the dishes by removal of the plastic cup top. Movement was allowed to continue for 5 minutes before the number bed bugs beneath each filter paper tent was recorded.
# [4] = tested on: bed bug (Cimex lectularius); assay: as above; assay type: in vivo; conditions: statement in the description, test not named
# C. lectularius = conditions: population of C. lectularius isolated in Arkansas; cited from earlier work
# bed bugs [5] = conditions: study performed in Africa; cited from earlier work
Molecule,Attractant Category (bed bugs [1]),Att Act (attractant activity value) (bed bugs [1]) [%],% Repellency [2] [%],% Repellency [3] [%],Repellency Category [3],further results
"CCC(=O)OCCC(C)C [BBC051, isoamyl propionate]",Mild (Compounds or blends with an attractant activity value of 10-20% were categorized as mild attractants),10,,,,
"O=CCCc1ccccc1 [BBC005, phenyl propyl aldehyde]",,,74,100,Very Strong (compounds with a percent repellency value of 80-100% were categorized as very strong repellents),
"N#C/C=C/c1ccccc1 [BBC029, cinnamyl nitrile]",,,92,56,Moderate (Compounds with a percent repellency value of 40-60% were categorized as moderate repellents),Ind % Rep (percent repellency of the individual compound) [3]: 56%
"O=C1CCCC1 [BBC069, cyclopentanone]",Strong (Compounds or blends with an attractant activity value of 40-60% were categorized as strong attractants),50,,,,
2-methoxy-3(5or6) isopropylpyrazine [BBC006],,,100,100,Very Strong (compounds with a percent repellency value of 80-100% were categorized as very strong repellents),
"CCCCCCOC=O [BBC035, hexyl formate]",Moderate (Compounds or blends with an attractant activity value of 20-40% were categorized as moderate attractants),30,,,,
"CCCOC=O [BBC070, propyl formate]",Moderate (Compounds or blends with an attractant activity value of 20-40% were categorized as moderate attractants),30,,,,
"COc1nccnc1C [BBC067, 2-methoxy-3-methylpyrazine]",Mild (Compounds or blends with an attractant activity value of 10-20% were categorized as mild attractants),10,,,,
"CCCC1CCC(=O)O1 (stereo not drawn) [BBC021, gamma-heptalactone]",,,91,71,Strong (Compounds with a percent repellency value of 60-80% were categorized as strong repellents),Ind % Rep (percent repellency of the individual compound) [3]: 71%
"C/C=C/C(=O)OC [BBC039, methyl crotonate]",Moderate (Compounds or blends with an attractant activity value of 20-40% were categorized as moderate attractants),20,,,,
"C/C=C(\C)C=O [BBC062, trans-2-methyl-2-butenal]",,,,,,Ind % Rep (percent repellency of the individual compound) [3]: 0%
"COc1cnccn1 [BBC047, 2-methoxypyrazine]",Moderate (Compounds or blends with an attractant activity value of 20-40% were categorized as moderate attractants),30,,,,
"CSC(C)=O [BBC060, methanethiol acetate]",Moderate (Compounds or blends with an attractant activity value of 20-40% were categorized as moderate attractants),20,,,,
"C=CCc1ccc(O)c(OC)c1 [BBC002, eugenol]",,,,,,"bed bug repellency, in words [4]: repel bed bugs"
"COC(/C=C/c1ccccc1)OC [BBC013, cinnamic aldehyde dimethyl acetal]",,,,90,Very Strong (compounds with a percent repellency value of 80-100% were categorized as very strong repellents),
"COc1ccccc1O [BBC011, guaiacol]",,,,,,"bed bug repellency, in words [4]: repel bed bugs"
"CCCC(=O)CCC [BBC057, heptanone-4]",,,38,,,
"CC(=O)/C=C/C=C(C)C [BBC014, methyl heptadienone]",,,64,87,Very Strong (compounds with a percent repellency value of 80-100% were categorized as very strong repellents),
"Clc1ccc(C(c2ccc(Cl)cc2)C(Cl)(Cl)Cl)cc1 [DDT, dichlorodiphenyltrichloroethane]",,,,,,"LD50 (C. lectularius): 100,000 ppm; bed bug activity level after treatment (bed bugs [5]): higher activity level"
ultrazur [BBC016],,,64,84,Very Strong (compounds with a percent repellency value of 80-100% were categorized as very strong repellents),
"COC(Cc1ccccc1)OC [BBC012, phenylacetaldehyde dimethyl acetate]",,,,100,Very Strong (compounds with a percent repellency value of 80-100% were categorized as very strong repellents),
"CC1=C2CCC(C)CC2OC1=O (stereo not drawn) [BBC054, menthalactone]",,,95,,,
methoxy cinnamic aldehyde [BBC046],,,92,23,Mild (Compounds with a percent repellency value of 20-40% were categorized as mild repellents),
"COC(=O)CCC(C)=O [BBC049, methyl levulinate]",Mild (Compounds or blends with an attractant activity value of 10-20% were categorized as mild attractants),10,,,,
"CCCC(C)=O [BBC065, 2-pentanone]",Moderate (Compounds or blends with an attractant activity value of 20-40% were categorized as moderate attractants),30,,,,
